# Source: patent US10323037B2, “Aminopyridazinone compounds as protein kinase inhibitors” (Jiangsu Hengrui Medicine Co., Ltd., priority 2014, dated 2019)
# Tested on: TMD-8 cells
# Test: Cell proliferation assay (CellTiter-Glo), TMD-8
# Assay type: cell-based
# Settings: 5-day treatment; read-out: TMD8 cells growth IC50
# Method: Cell proliferation assay: TMD-8 and SU-DHL-1 cells were maintained at 37° C. in a humidified atmosphere with 5% CO2 in the recommended medium and serum concentrations. For cell proliferation assay, cells were seeded in 96-well pates at a density of 5,000 to 10,000 cells per well and cultured overnight at 37° C. in recommended medium supplemented with 5-10% FBS. On the next day, the test articles at various concentrations or vehicle control (0.5% DMSO) were added into cell culture. After 5-day treatment, the growth of cells was assayed by the CellTiter-Glo® Luminestceaent Cell Viability Assay (Promega). IC50 values were calculated using GraphPad Prism by plotting the logarithm of the concentration versus percent inhibition of cell growth as compared with the vehicle control.
row,Compound,IC50 [nM]
1,"CN(C)C/C=C/C(=O)NC1CCC(n2cc(-c3ccc(Oc4ccccc4)cc3)c3c(N)n[nH]c(=O)c32)CC1 (centres unmarked) [Example 46, (E)-N-[4-[4-amino-7-oxo-3-(4-phenoxyphenyl)-6H-pyrrolo[2,3 d]pyridazin-1-yl]cyclohexyl]-4-(dimethylamino)but-2-enamide]",10 to 1000
2,"CN(C)C/C=C/C(=O)N1CCC(F)C(n2cc(-c3ccc(Oc4ccccc4)cc3)c3c(N)n[nH]c(=O)c32)C1 (centres unmarked) [Example 45, 4-amino-1-[1-[(E)-4-(dimethylamino)but-2-enoyl]-4-fluoro-3-piperidyl]-3-(4-phenoxyphenyl)-6H-pyrrolo[2,3 d]pyridazin-7-one]",≤ 10

# Same assay, conditions: Homo sapiens, TMD8, 120 h; 5-day treatment; read-out: TMD8 cells growth IC50
row,Compound,IC50 [nM]
1,"C=CC(=O)N1CC(n2cc(-c3ccc(Oc4ccccc4)cc3)c3c(N)n[nH]c(=O)c32)C1 [Example 5, 4-amino-3-(4-phenoxyphenyl)-1-(1-prop-2-enoylazetidin-3-yl)-6H-pyrrolo[2,3-d]pyridazin-7-one]",10 to 1000
2,"C=CC(=O)N1CCC[C@H]1Cn1cc(-c2ccc(Oc3ccccc3)cc2)c2c(N)n[nH]c(=O)c21 [Example 6, 4-amino-3-(4-phenoxyphenyl)-1-[[(2S)-1-prop-2-enoylpyrrolidin-2-yl]methyl]-6H-pyrrolo[2,3-d]pyridazin-7-one]",≤ 10
3,"CC(C)N(C)C/C=C/C(=O)N1CCC[C@@H](n2cc(-c3ccc(Oc4ccccc4)cc3)c3c(N)n[nH]c(=O)c32)C1 [Example 16, 4-amino-1-[(3R)-1-[(E)-4-[isopropyl(methyl)amino]but-2-enoyl]-3-piperidyl]-3-(4-phenoxyphenyl)-6H-pyrrolo[2,3-d]pyridazin-7-one]",10 to 1000
4,"C=CC(=O)N1CCCC(n2cc(-c3ccc(Oc4ccc(F)cc4)cc3)c3c(N)n[nH]c(=O)c32)C1 (centres unmarked) [Example 60, 1-(1-acryloylpiperidin-3-yl)-4-amino-3-(4-(4-fluorophenoxy)phenyl)-1H-pyrrolo[2,3-d]pyridazin-7(6H)-one]",10 to 1000
5,"N#CN1CCC[C@@H](n2cc(-c3ccc(Oc4ccccc4F)cc3)c3c(N)n[nH]c(=O)c32)C1 [Example 87, (R)-3-(4-amino-3-(4-(2-fluorophenoxy)phenyl)-7-oxo-6,7-dihydro-1H-pyrrolo[2,3-d]pyridazin-1-yl)piperidine-1-carbonitrile]",≤ 10
6,"C=CC(=O)N1CC[C@@H](n2cc(-c3ccc(Oc4ccccc4F)cc3)c3c(N)n[nH]c(=O)c32)C1 [Example 106, (R)-1-(1-acryloylpyrrolidin-3-yl)-4-amino-3-(4-(2-fluorophenoxy)phenyl)-1H-pyrrolo[2,3-d]pyridazin-7(6H)-one]",≤ 10
7,"Nc1n[nH]c(=O)c2c1c(-c1ccc(Oc3ccccc3)cc1)cn2[C@@H]1CCCN(C(=O)/C=C/CN2CCOCC2)C1 [Example 35, 4-amino-1-[(3R)-1-[(E)-4-morpholinobut-2-enoyl]-3-piperidyl]-3-(4-phenoxyphenyl)-6H-pyrrolo[2,3-d]pyridazin-7-one]",≤ 10
8,"C=CC(=O)N[C@H]1CC[C@H](n2cc(-c3ccc(Oc4ccccc4F)cc3)c3c(N)n[nH]c(=O)c32)CC1 [Example 105, N-((1r,4r)-4-(4-amino-3-(4-(2-fluorophenoxy)phenyl)-7-oxo-6,7-dihydro-1H-pyrrolo[2,3-d]pyridazin-1-yl)cyclohexyl)acrylamide]",10 to 1000
9,"CN(C)C/C=C/C(=O)N1CCC[C@@H](n2cc(-c3ccc(Oc4ccccc4)cc3)c3c(N)n[nH]c(=O)c32)C1 [Example 26, 4-amino-1-[(3R)-1-[(E)-4-(dimethylamino)but-2-enoyl]-3-piperidyl]-3-(4-phenoxyphenyl)-6H-pyrrolo[2,3-d]pyridazin-7-one]",≤ 10
10,"C=CC(=O)N1CCC[C@@H](n2cc(-c3ccc(Oc4ccccc4F)cc3)c3c(N)n[nH]c(=O)c32)C1 [Example 56, (R)-1-(1-acryloylpiperidin-3-yl)-4-amino-3-(4-(2-fluorophenoxy)phenyl)-1H-pyrrolo[2,3-d]pyridazin-7(6H)-one]",≤ 10
11,"C=CC(=O)N[C@H]1CC[C@@H](n2cc(-c3ccc(Oc4ccccc4F)cc3)c3c(N)n[nH]c(=O)c32)CC1 [Example 104, N-((1s,4s)-4-(4-amino-3-(4-(2-fluorophenoxy)phenyl)-7-oxo-6,7-dihydro-1H-pyrrolo[2,3-d]pyridazin-1-yl)cyclohexyl)acrylamide]",≤ 10
12,"CN(C)C/C=C/C(=O)N1CCC[C@@H](n2cc(-c3ccc(Oc4c(F)cccc4F)cc3)c3c(N)n[nH]c(=O)c32)C1 [Example 59, 4-amino-3-[4-(2,6-difluorophenoxy)phenyl]-1-[(3R)-1-[(E)-4-(dimethylamino)but-2-enoyl]-3-piperidyl]-6H-pyrrolo[2,3-d]pyridazin-7-one]",≤ 10
13,"C=CC(=O)N1CCC(Cn2cc(-c3ccc(Oc4ccccc4)cc3)c3c(N)n[nH]c(=O)c32)C1 (centres unmarked) [Example 8, 4-amino-3-(4-phenoxyphenyl)-1-[(1-prop-2-enoylpyrrolidin-3-yl)methyl]-6H-pyrrolo[2,3-d]pyridazin-7-one]",10 to 1000
14,"C=CC(=O)N1CC(Cn2cc(-c3ccc(Oc4ccccc4)cc3)c3c(N)n[nH]c(=O)c32)C1 [Example 12, 4-amino-3-(4-phenoxyphenyl)-1-[(1-prop-2-enoylazetidin-3-yl)methyl]-6H-pyrrolo[2,3-d]pyridazin-7-one]",≤ 10
15,"Nc1n[nH]c(=O)c2c1c(-c1ccc(Oc3ccccc3)cc1)cn2[C@@H]1CCCN(C(=O)C2CC2)C1 [Example 23, 4-amino-1-[(3R)-1-(cyclopropanecarbonyl)-3-piperidyl]-3-(4-phenoxyphenyl)-6H-pyrrolo[2,3-d]pyridazin-7-one]",10 to 1000
16,"C=CC(=O)Nc1ccc(-n2cc(-c3ccc(Oc4ccccc4)cc3)c3c(N)n[nH]c(=O)c32)cc1 [Example 90, N-(4-(4-amino-7-oxo-3-(4-phenoxyphenyl)-6,7-dihydro-1H-pyrrolo[2,3-d]pyridazin-1-yl)phenyl)acrylamide]",≤ 10
17,"CCN(CC)C/C=C/C(=O)N1CCC[C@@H](n2cc(-c3ccc(Oc4ccccc4)cc3)c3c(N)n[nH]c(=O)c32)C1 [Example 27, 4-amino-1-[(3R)-1-[(E)-4-(diethylamino)but-2-enoyl]-3-piperidyl]-3-(4-phenoxyphenyl)-6H-pyrrolo[2,3-d]pyridazin-7-one]",≤ 10
18,"CN(C)C/C=C/C(=O)N1CCCC(n2cc(-c3ccc(Oc4cccc(F)c4)cc3)c3c(N)n[nH]c(=O)c32)C1 (centres unmarked) [Example 63, 4-amino-1-[1-[(E)-4-(dimethylamino)but-2-enoyl]-3-piperidyl]-3-[4-(3-fluorophenoxy)phenyl]-6H-pyrrolo[2,3-d]pyridazin-7-one]",≤ 10
19,"CN(C)C/C=C/C(=O)N1CC[C@@H](n2cc(-c3ccc(Oc4ccccc4)cc3)c3c(N)n[nH]c(=O)c32)C1 [Example 39, 4-amino-1-[(3R)-1-[(E)-4-(dimethylamino)but-2-enoyl]pyrrolidin-3-yl]-3-(4-phenoxyphenyl)-6H-pyrrolo[2,3-d]pyridazin-7-one]",≤ 10
20,"C=CC(=O)Nc1cccc(-n2cc(-c3ccc(Oc4ccccc4F)cc3)c3c(N)n[nH]c(=O)c32)c1 [Example 91, N-(3-(4-amino-3-(4-(2-fluorophenoxy)phenyl)-7-oxo-6,7-dihydro-1H-pyrrolo[2,3-d]pyridazin-1-yl)phenyl)acrylamide]",≤ 10
21,"N#CCC(=O)N1CCC[C@@H](n2cc(-c3ccc(Oc4ccccc4)cc3)c3c(N)n[nH]c(=O)c32)C1 [Example 24, 3-[(3R)-3-[4-amino-7-oxo-3-(4-phenoxyphenyl)-6H-pyrrolo[2,3-d]pyridazin-1-yl]-1-piperidyl]-3-oxo-propanenitrile]",10 to 1000
22,"CN(C)C/C=C/C(=O)N1CCC[C@H]1Cn1cc(-c2ccc(Oc3ccccc3)cc2)c2c(N)n[nH]c(=O)c21 [Example 41, 4-amino-1-[[(2S)-1-[(E)-4-(dimethylamino)but-2-enoyl]pyrrolidin-2-yl]methyl]-3-(4-phenoxyphenyl)-6H-pyrrolo[2,3-d]pyridazin-7-one]",10 to 1000
23,"CN(C/C=C/C(=O)N1CCC[C@@H](n2cc(-c3ccc(Oc4ccccc4)cc3)c3c(N)n[nH]c(=O)c32)C1)C1CCC1 [Example 31, 4-amino-1-[(3R)-1-[(E)-4-[cyclobutyl(methyl)amino]but-2-enoyl]-3-piperidyl]-3-(4-phenoxyphenyl)-6H-pyrrolo[2,3-d]pyridazin-7-one]",10 to 1000
24,"CNC/C=C/C(=O)N1CCC[C@@H](n2cc(-c3ccc(Oc4ccccc4)cc3)c3c(N)n[nH]c(=O)c32)C1 [Example 18, 4-amino-1-[(3R)-1-[(E)-4-(methylamino)but-2-enoyl]-3-piperidyl]-3-(4-phenoxyphenyl)-6H-pyrrolo[2,3-d]pyridazin-7-one]",≤ 10
25,"Nc1n[nH]c(=O)c2c1c(-c1ccc(Oc3ccccc3)cc1)cn2[C@@H]1CCCN(C(=O)/C=C/CN2CCCC2)C1 [Example 34, 4-amino-3-(4-phenoxyphenyl)-1-[(3R)-1-[(E)-4-pyrrolidin-1-ylbut-2-enoyl]-3-piperidyl]-6H-pyrrolo[2,3-d]pyridazin-7-one]",≤ 10
26,"C=CC(=O)N1CCC[C@@H](n2cc(-c3ccc(Oc4ccc(Cl)c(Cl)c4)c(OC)c3)c3c(N)n[nH]c(=O)c32)C1 [Example 72, (R)-1-(1-acryloylpiperidin-3-yl)-4-amino-3-(4-(3,4-dichlorophenoxy)-3-methoxyphenyl)-1H-pyrrolo[2,3-d]pyridazin-7(6H)-one]",10 to 1000
27,"C=CC(=O)Nc1cccc(-n2cc(-c3ccc(Oc4ccccc4)cc3)c3c(N)n[nH]c(=O)c32)c1 [Example 88, N-(3-(4-amino-7-oxo-3-(4-phenoxyphenyl)-6,7-dihydro-1H-pyrrolo[2,3-d]pyridazin-1-yl)phenyl)acrylamide]",≤ 10
